PubChem BioAssay (NCI)
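These data come from cells grown in 96-well plates and exposed to compound for 48 hours at five concentrations. At the GI50, growth is halved. At the TGI there is no net growth.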

Experiments:
Assay in all cases: DTP human tumour cell line panel, 48 h
[1] = system: HS 578T breast
[2] = system: SW-620 colon
[3] = system: NCI-H23 lung
[4] = system: TK-10 renal
[5] = system: MDA-MB-231 breast
[6] = system: EKVX NSCLC
[7] = system: A549 NSCLC
[8] = system: HT29 colon
[9] = system: U251 CNS
[10] = system: LOX IMVI melanoma

| SMILES | GI50 [1] [nM] | TGI [1] [µM] | GI50 [2] [nM] | TGI [2] [µM] | GI50 [3] [nM] | TGI [3] [µM] | GI50 [4] [µM] | TGI [4] [µM] | GI50 [5] [nM] | TGI [5] [µM] | GI50 [6] [nM] | TGI [6] [µM] | GI50 [7] [nM] | TGI [7] [µM] | GI50 [8] [nM] | TGI [8] [µM] | GI50 [9] [nM] | TGI [9] [µM] | GI50 [10] [nM] | TGI [10] [µM] |
| --- | --- | --- | --- | --- | --- | --- | --- | --- | --- | --- | --- | --- | --- | --- | --- | --- | --- | --- | --- | --- |
| Cc1cccc(Cc2cnc(NC(=O)CCc3ccc(C)o3)s2)c1 | 356 | > 95.3 | 142 | > 100 | 593 | > 100 | 1.49 | > 100 | 450 | 23.8 | 585 | > 100 | 370 | > 100 | 169 | 4.04 | 293 | > 100 | 518 | > 100 |
| COc1ccccc1C(=O)N(C)c1ccc(Cl)c(C(=O)OC(C)C)c1 | – | > 100 | – | > 100 | – | > 100 | – | > 100 | – | > 100 | – | > 100 | – | > 100 | – | > 100 | – | > 100 | – | > 100 |
| CCN(c1cc(C#CCN2CCOCC2)cc(C(=O)NCc2c(C)cc(C)[nH]c2=O)c1C)C1CCC(N(C)CCOC)CC1 (stereo not given) | > 100000 | > 100 | > 100000 | > 100 | > 100000 | > 100 | > 100 | > 100 | > 100000 | > 100 | > 100000 | > 100 | > 100000 | > 100 | > 100000 | > 100 | > 100000 | > 100 | > 100000 | > 100 |
| C=CC1=C(C)C2=NC1=CC1=NC(=C(CC)/C1=C\O)C=C1N=C3C(=C1C)C(=O)[C@H](C(=O)OC)C3=C1NC(=C2)[C@@H](C)[C@@H]1CCC(=O)O | – | > 100 | – | > 100 | – | > 100 | – | > 100 | – | > 100 | – | > 100 | – | > 100 | – | > 100 | – | > 100 | – | > 100 |
| COc1cc(NC(=O)C2=C(N3CCOCC3)/C(=C/c3ccc(Cl)cc3)CC2)cc(OC)c1OC | 3970 | 40.7 | > 100000 | > 100 | 48800 | > 100 | 27.9 | 86.5 | 26500 | > 100 | 24900 | > 100 | 55900 | > 100 | > 100000 | > 100 | 16800 | 59.7 | > 100000 | > 100 |
| O=C(NC(=O)c1ccccc1[N+](=O)[O-])Nc1ccc(Oc2ncc(Cl)cn2)c(C(F)(F)F)c1 | – | 2.45 | – | > 11.9 | – | > 100 | – | > 100 | – | 2.6 | – | > 100 | – | > 100 | – | 0.167 | – | 10.8 | – | 13.8 |
| Cc1c(Cl)cccc1NC(=O)c1sc2nc3c(cc2c1N)CCCCC3 | 227 | > 50 | 232 | > 50 | 391 | > 50 | 6.66 | 45.6 | 827 | > 50 | 316 | > 50 | 725 | > 50 | 186 | 5.02 | 281 | 15.8 | 262 | 23.7 |
| Oc1c(CN2CCN(c3ccccc3)CC2)cc(Br)c2cccnc12 | – | > 88.6 | – | > 100 | – | > 100 | – | > 100 | – | 15.7 | – | > 29.3 | – | > 100 | – | > 95.8 | – | 7.87 | – | 17 |
| CCCCCCCCCCCCCCCCCC(=O)Nc1ccn(C2OC(CO)C(O)C2O)c(=O)n1 (stereo not given) | – | > 100 | – | > 100 | – | 98.7 | – | > 100 | – | > 100 | – | > 100 | – | > 100 | – | > 100 | – | > 100 | – | 39.4 |
| COc1cc(-c2csc(NC(=O)Nc3cc(Cl)cc(Cl)c3)n2)cc(OC)c1OC | 1940 | 4.91 | 1970 | 4.02 | 1940 | 4.5 | 1.73 | 3.16 | 1920 | 4.12 | 1870 | 4.22 | 1720 | 3.61 | 2020 | 4.41 | 1680 | 3.15 | 1930 | 3.96 |
